Drawing on patent publication US20250136586A1, “Substituted 7-(Pyrimidin-4-yl)Quinolin-4(1H)-One Compounds as Cyclin Dependent Kinase Inhibitors” (BeiGene, Ltd., priority 2022, published 2025), this text covers IC50 for 22 molecules.

Structures are written as SMILES.

One experiment has as its target CDK4/Cyclin D1 (Homo sapiens (Human), UniProt P11802). Put plainly: TR-FRET kinase inhibition assay, CDK4/Cyclin D1. In kind it is biochemical. The following applies: 1 mM ATP, 0.15 μM Rb (Ser780)-biotin substrate, read-out: CDK4D1 IC50. Put shortly: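 Kinase was preincubated with compound for 60 min at room temperature, then reacted with ATP and Rb (Ser780)-biotin substrate for 120 min. IC50 came from a four-parameter logistic fit.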

The next experiment has as its target CDK6/Cyclin D3 (Homo sapiens (Human), UniProt Q00534). Put plainly: TR-FRET kinase inhibition assay, CDK6/Cyclin D3. It is filed as biochemical. The following applies: 1 mM ATP, 0.15 μM Rb (Ser780)-biotin substrate, read-out: CDK6D3 IC50. Summed up: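 Kinase preincubated 60 min at room temperature with 0–10 μM compound; reaction started with 1 mM ATP and 0.15 μM Rb (Ser780)-biotin, run 120 min at room temperature in HEPES pH 7.0, 50 mM MgCl2. pRb detected by TR-FRET (665/620 nm ratio); IC50 from four-parameter logistic fit.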

Sequence of CDK6/Cyclin D3 (Q00534 whole entry): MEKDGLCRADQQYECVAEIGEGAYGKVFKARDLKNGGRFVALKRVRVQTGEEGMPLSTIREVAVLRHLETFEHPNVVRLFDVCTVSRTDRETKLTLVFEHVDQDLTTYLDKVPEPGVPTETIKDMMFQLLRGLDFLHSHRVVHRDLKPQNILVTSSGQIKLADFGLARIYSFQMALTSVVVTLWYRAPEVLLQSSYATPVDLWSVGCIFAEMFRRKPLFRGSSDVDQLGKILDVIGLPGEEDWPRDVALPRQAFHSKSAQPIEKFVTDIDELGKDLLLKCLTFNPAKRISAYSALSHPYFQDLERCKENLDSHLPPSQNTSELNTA
Sequence of CDK6/Cyclin D3 (P30281 whole entry partner): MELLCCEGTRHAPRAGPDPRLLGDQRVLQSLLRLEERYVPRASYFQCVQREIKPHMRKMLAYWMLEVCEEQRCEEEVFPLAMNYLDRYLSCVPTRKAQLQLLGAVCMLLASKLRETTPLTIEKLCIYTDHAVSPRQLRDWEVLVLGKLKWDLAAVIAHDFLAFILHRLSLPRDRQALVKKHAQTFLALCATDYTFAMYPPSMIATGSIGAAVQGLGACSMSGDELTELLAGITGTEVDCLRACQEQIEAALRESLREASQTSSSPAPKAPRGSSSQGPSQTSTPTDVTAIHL
Sequence of CDK4/Cyclin D1 (P11802 whole entry): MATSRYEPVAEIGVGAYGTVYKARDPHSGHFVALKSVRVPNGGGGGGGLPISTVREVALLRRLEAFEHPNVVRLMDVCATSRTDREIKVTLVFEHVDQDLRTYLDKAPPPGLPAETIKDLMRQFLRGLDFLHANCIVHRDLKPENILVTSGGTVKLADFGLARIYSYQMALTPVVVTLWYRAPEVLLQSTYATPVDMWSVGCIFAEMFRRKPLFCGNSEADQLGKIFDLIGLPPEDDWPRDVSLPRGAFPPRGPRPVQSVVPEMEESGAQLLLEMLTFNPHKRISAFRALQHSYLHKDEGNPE
Sequence of CDK4/Cyclin D1 (P24385 whole entry partner): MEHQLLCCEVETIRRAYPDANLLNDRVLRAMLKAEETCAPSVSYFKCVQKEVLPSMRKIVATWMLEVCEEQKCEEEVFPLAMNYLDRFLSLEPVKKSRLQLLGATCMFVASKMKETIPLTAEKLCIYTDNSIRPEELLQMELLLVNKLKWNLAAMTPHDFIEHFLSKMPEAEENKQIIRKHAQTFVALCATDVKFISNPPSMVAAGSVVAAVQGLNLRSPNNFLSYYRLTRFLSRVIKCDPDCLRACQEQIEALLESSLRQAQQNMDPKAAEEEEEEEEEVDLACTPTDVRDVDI

As for `CC(C)NCc1cc(=O)c2ccc(-c3nc(N[C@@H]4CCOC[C@H]4O)ncc3F)cc2n1C(C)C` [Example 47, 7-(5-fluoro-2-(((3S,4R)-3-hydroxytetrahydro-2H-pyran-4-yl)amino)pyrimidin-4-yl)-1-isopropyl-2-((isopropylamino)methyl)quinolin-4(1H)-one], the figures for the IC50 at CDK4/Cyclin D1 and at CDK6/Cyclin D3 were 14 nM and 658 nM, respectively.
With `CC(C)n1c(CN2[C@H](C)COC[C@@H]2C)cc(=O)c2ccc(-c3nc(N[C@@H]4CCOC[C@H]4O)ncc3F)cc21` [Example 107, 2-(((3R,5S)-3,5-dimethylmorpholino)methyl)-7-(5-fluoro-2-(((3S,4R)-3-hydroxytetrahydro-2H-pyran-4-yl)amino)pyrimidin-4-yl)-1-isopropylquinolin-4(1H)-one], the IC50 on CDK4/Cyclin D1 came to 7.4 nM; at CDK6/Cyclin D3, 340 nM.
For `CC(C)n1c(C(=O)NCC(C)(C)O)cc(=O)c2ccc(-c3nc(N[C@@H]4CCOC[C@H]4O)ncc3Cl)cc21` [Example 22, 7-(5-chloro-2-(((3S,4R)-3-hydroxytetrahydro-2H-pyran-4-yl)amino)pyrimidin-4-yl)-N-(2-hydroxy-2-methylpropyl)-1-isopropyl-4-oxo-1,4-dihydroquinoline-2-carboxamide], in that order: 49 nM and 931 nM.
`CC(C)n1c(CN2CCS(=O)(=O)CC2)cc(=O)c2ccc(-c3nc(N[C@@H]4CCOC[C@H]4O)ncc3F)cc21` [Example 83, 2-((1,1-dioxidothiomorpholino)methyl)-7-(5-fluoro-2-(((3S,4R)-3-hydroxytetrahydro-2H-pyran-4-yl)amino)pyrimidin-4-yl)-1-isopropylquinolin-4(1H)-one]: the IC50 is 32 nM at CDK4/Cyclin D1 and 928 nM at CDK6/Cyclin D3.
For `CC(C)n1c(CN2CC[C@H](O)C2)cc(=O)c2ccc(-c3nc(N[C@@H]4CCOC[C@H]4O)ncc3F)cc21` [Example 86, 7-(5-fluoro-2-(((3S,4R)-3-hydroxytetrahydro-2H-pyran-4-yl)amino)pyrimidin-4-yl)-2-(((S)-3-hydroxypyrrolidin-1-yl)methyl)-1-isopropylquinolin-4(1H)-one], in that order: 21 nM and 777 nM.
For `CC(C)n1c(CN2CCC(F)(F)C2)cc(=O)c2ccc(-c3nc(N[C@@H]4CCOC[C@H]4O)ncc3F)cc21` [Example 80, 2-((3,3-difluoropyrrolidin-1-yl)methyl)-7-(5-fluoro-2-(((3S,4R)-3-hydroxytetrahydro-2H-pyran-4-yl)amino)pyrimidin-4-yl)-1-isopropylquinolin-4(1H)-one], in that order: 22 nM and 616 nM.
With `CC(C)n1c(CN2CCC[C@@]3(CCNC3=O)C2)cc(=O)c2ccc(-c3nc(N[C@@H]4CCOC[C@H]4O)ncc3F)cc21` [Example 104, (R)-7-((7-(5-fluoro-2-(((3S,4R)-3-hydroxytetrahydro-2H-pyran-4-yl)amino)pyrimidin-4-yl)-1-isopropyl-4-oxo-1,4-dihydroquinolin-2-yl)methyl)-2,7-diazaspiro[4.5]decan-1-one], the IC50 at CDK4/Cyclin D1 came to 24 nM; at CDK6/Cyclin D3, 139 nM.
As to `CC(C)n1c(CN2C[C@H]3COC[C@H]3C2)cc(=O)c2ccc(-c3nc(N[C@@H]4CCOC[C@H]4O)ncc3F)cc21` [Example 41, 7-(5-fluoro-2-(((3S,4R)-3-hydroxytetrahydro-2H-pyran-4-yl)amino)pyrimidin-4-yl)-1-isopropyl-2-(((3aR,6aS)-tetrahydro-1H-furo[3,4-c]pyrrol-5(3H)-yl)methyl)quinolin-4(1H)-one], the IC50 on CDK4/Cyclin D1 came out at 24 nM; on CDK6/Cyclin D3, 1300 nM.
As to `CC(C)n1c(CNC2CCC2)cc(=O)c2ccc(-c3nc(N[C@@H]4CCOC[C@H]4O)ncc3F)cc21` [Example 76, 2-((cyclobutylamino)methyl)-7-(5-fluoro-2-(((3S,4R)-3-hydroxytetrahydro-2H-pyran-4-yl)amino)pyrimidin-4-yl)-1-isopropylquinolin-4(1H)-one], the IC50 on CDK4/Cyclin D1 amounted to 28 nM; at CDK6/Cyclin D3, 588 nM.
For `CC(C)n1c(CN2[C@@H](C)COC[C@@H]2C)cc(=O)c2ccc(-c3nc(N[C@@H]4CCOC[C@H]4O)ncc3F)cc21` [Example 93, 2-(((3S,5S)-3,5-dimethylmorpholino)methyl)-7-(5-fluoro-2-(((3S,4R)-3-hydroxytetrahydro-2H-pyran-4-yl)amino)pyrimidin-4-yl)-1-isopropylquinolin-4(1H)-one], the IC50 on CDK4/Cyclin D1 came out at 8.7 nM; at CDK6/Cyclin D3, 296 nM.
For `CC(C)n1c(CNC2CCCC2)cc(=O)c2ccc(-c3nc(N[C@@H]4CCOC[C@H]4O)ncc3F)cc21` [Example 66, 2-((cyclopentylamino)methyl)-7-(5-fluoro-2-(((3S,4R)-3-hydroxytetrahydro-2H-pyran-4-yl)amino)pyrimidin-4-yl)-1-isopropylquinolin-4(1H)-one] the same measures were 21 nM and 651 nM.
For `Cc1c(CNC(C)C)n(C(C)C)c2cc(-c3nc(N[C@@H]4CCOC[C@H]4O)ncc3F)ccc2c1=O` [Example 110, 7-(5-fluoro-2-(((3S,4R)-3-hydroxytetrahydro-2H-pyran-4-yl)amino)pyrimidin-4-yl)-1-isopropyl-2-((isopropylamino)methyl)-3-methylquinolin-4(1H)-one] the same measures were 9.3 nM and 567 nM.
As for `CC(C)n1c(CN2[C@H](C)COC[C@H]2C)cc(=O)c2ccc(-c3nc(N[C@@H]4CCOC[C@H]4O)ncc3F)cc21` [Example 106, 2-(((3R,5R)-3,5-dimethylmorpholino)methyl)-7-(5-fluoro-2-(((3S,4R)-3-hydroxytetrahydro-2H-pyran-4-yl)amino)pyrimidin-4-yl)-1-isopropylquinolin-4(1H)-one], the values for the IC50 on CDK4/Cyclin D1 and on CDK6/Cyclin D3 were 4.8 nM and 298 nM, respectively.
As for `CC(C)n1c(CN[C@H]2C[C@@H](F)C2)cc(=O)c2ccc(-c3nc(N[C@@H]4CCOC[C@H]4O)ncc3F)cc21` [Example 64, 7-(5-fluoro-2-(((3S,4R)-3-hydroxytetrahydro-2H-pyran-4-yl)amino)pyrimidin-4-yl)-2-((((1s,3S)-3-fluorocyclobutyl)amino)methyl)-1-isopropylquinolin-4(1H)-one], the IC50 at CDK4/Cyclin D1 was 26 nM; on CDK6/Cyclin D3, 702 nM.
As to `Cc1c(CN2CCCC3(CCNC3=O)C2)n(C(C)C)c2cc(-c3nc(N[C@@H]4CCOC[C@H]4O)ncc3F)ccc2c1=O` (stereo partly drawn) [Example 124, 7-((7-(5-fluoro-2-(((3S,4R)-3-hydroxytetrahydro-2H-pyran-4-yl)amino)pyrimidin-4-yl)-1-isopropyl-3-methyl-4-oxo-1,4-dihydroquinolin-2-yl)methyl)-2,7-diazaspiro[4.5]decan-1-one], the IC50 amounted to 5 nM at CDK4/Cyclin D1 and 230 nM on CDK6/Cyclin D3.
Turning to `Cc1c(C)n(C(C)C)c2cc(-c3nc(N[C@@H]4CCOC[C@H]4O)ncc3F)ccc2c1=O` [Example 16, 7-(5-fluoro-2-(((3S,4R)-3-hydroxytetrahydro-2H-pyran-4-yl)amino)pyrimidin-4-yl)-1-isopropyl-2,3-dimethylquinolin-4(1H)-one], the values for the IC50 on CDK4/Cyclin D1 and on CDK6/Cyclin D3 were 8.3 nM and 257 nM, respectively.
For `CC(C)n1c(CN2CCC[C@@H](C#N)C2)cc(=O)c2ccc(-c3nc(N[C@@H]4CCOC[C@H]4O)ncc3F)cc21` [Example 88, (R)-1-((7-(5-fluoro-2-(((3S,4R)-3-hydroxytetrahydro-2H-pyran-4-yl)amino)pyrimidin-4-yl)-1-isopropyl-4-oxo-1,4-dihydroquinolin-2-yl)methyl)piperidine-3-carbonitrile], in that order: 4.1 nM and 406 nM.
For `Cc1cc(=O)c2ccc(-c3nc(N[C@@H]4CCOC[C@H]4O)ncc3Cl)cc2n1C(C)C` [Example 11, 7-(5-chloro-2-(((3S,4R)-3-hydroxytetrahydro-2H-pyran-4-yl)amino)pyrimidin-4-yl)-1-isopropyl-2-methylquinolin-4(1H)-one], in that order: 28 nM and 420 nM.
Take `Cc1c(C2CCN2)n(C(C)C)c2cc(-c3nc(N[C@@H]4CCOC[C@H]4O)ncc3F)ccc2c1=O` (stereo partly drawn) [Example 386, 2-(azetidin-2-yl)-7-(5-fluoro-2-(((3S,4R)-3-hydroxytetrahydro-2H-pyran-4-yl)amino)pyrimidin-4-yl)-1-isopropyl-3-methylquinolin-4(1H)-one]: the IC50 on CDK4/Cyclin D1 turned out to be 12 nM; at CDK6/Cyclin D3, 375 nM.
In the case of `Cc1c(CN2CCC(F)(F)CC2)n(C(C)C)c2cc(-c3nc(N[C@@H]4CCOC[C@H]4O)ncc3F)ccc2c1=O` [Example 121, 2-((4,4-difluoropiperidin-1-yl)methyl)-7-(5-fluoro-2-(((3S,4R)-3-hydroxytetrahydro-2H-pyran-4-yl)amino)pyrimidin-4-yl)-1-isopropyl-3-methylquinolin-4(1H)-one], the IC50 turned out to be 4.7 nM on CDK4/Cyclin D1 and 113 nM on CDK6/Cyclin D3.
For `CC(C)n1c(CN2CC[C@@H](F)[C@H](O)C2)cc(=O)c2ccc(-c3nc(N[C@@H]4CCOC[C@H]4O)ncc3F)cc21` [Example 84, 7-(5-fluoro-2-(((3S,4R)-3-hydroxytetrahydro-2H-pyran-4-yl)amino)pyrimidin-4-yl)-2-(((3R,4R)-4-fluoro-3-hydroxypiperidin-1-yl)methyl)-1-isopropylquinolin-4(1H)-one] the same measures were 6.8 nM and 170 nM.
For `CC(C)n1c(CN2CCO[C@H](C)C2)cc(=O)c2ccc(-c3nc(N[C@@H]4CCOC[C@H]4O)ncc3F)cc21` [Example 18, 7-(5-fluoro-2-(((3S,4R)-3-hydroxytetrahydro-2H-pyran-4-yl)amino)pyrimidin-4-yl)-1-isopropyl-2-(((R)-2-methylmorpholino)methyl)quinolin-4(1H)-one] the same measures were 27 nM and 1210 nM.
